Results from ChEMBL document CHEMBL2440076, “New triarylpyrazoles as broad-spectrum anticancer agents: design, synthesis, and biological evaluation” (Eur J Med Chem, 2013).

Experiments:
Type in all cases: functional
SF-268 [1] = experiment: Growth inhibition of human SF268 cells assessed as cell growth at 3X10'-9 M after 48 hrs by sulforhodamine B assay; conditions: SF-268, 48 h, read-out: Activity
SF-539 = experiment: Growth inhibition of human SF539 cells assessed as cell growth at 3X10'-8 M after 48 hrs by sulforhodamine B assay; conditions: SF-539, 48 h, read-out: Activity
MCF7 [2] = experiment: Growth inhibition of human MCF7 cells assessed as cell growth at 3X10'-9 M after 48 hrs by sulforhodamine B assay; conditions: MCF7, 48 h, read-out: Activity
MDA-MB-231 = experiment: Growth inhibition of human MDA-MB-231 cells assessed as cell growth at 3X10'-5 M after 48 hrs by sulforhodamine B assay; conditions: MDA-MB-231, 48 h, read-out: Activity
LOX IMVI [3] = experiment: Growth inhibition of human LOXIMVI cells assessed as cell growth at 3X10'-8 M after 48 hrs by sulforhodamine B assay; conditions: read-out: Activity
K562 = experiment: Growth inhibition of human K562 cells assessed as cell growth at 3X10'-8 M after 48 hrs by sulforhodamine B assay; conditions: K562, 48 h, read-out: Activity
NCI-H460 [4] = experiment: Growth inhibition of human NCI-H460 cells assessed as cell growth at 3X10'-8 M after 48 hrs by sulforhodamine B assay; conditions: NCI-H460, 48 h, read-out: Activity
[5] = Growth inhibition of human Hs 578T cells assessed as cell growth at 3X10'-5 M after 48 hrs by sulforhodamine B assay; conditions: read-out: Activity
NCI-H460 [6] = experiment: Growth inhibition of human NCI-H460 cells assessed as cell growth at 3X10'-6 M after 48 hrs by sulforhodamine B assay; conditions: NCI-H460, 48 h, read-out: Activity
BT-549 = experiment: Growth inhibition of human BT549 cells assessed as cell growth at 3X10'-9 M after 48 hrs by sulforhodamine B assay; conditions: BT-549, 48 h, read-out: Activity
OVCAR-3 = experiment: Growth inhibition of human OVCAR3 cells assessed as cell growth at 3X10'-6 M after 48 hrs by sulforhodamine B assay; conditions: OVCAR-3, 48 h, read-out: Activity
ACHN = experiment: Growth inhibition of human ACHN cells assessed as cell growth at 3X10'-8 M after 48 hrs by sulforhodamine B assay; conditions: read-out: Activity
MCF7 [7] = experiment: Growth inhibition of human MCF7 cells assessed as cell growth at 3X10'-5 M after 48 hrs by sulforhodamine B assay; conditions: MCF7, 48 h, read-out: Activity
MCF7 [8] = experiment: Growth inhibition of human MCF7 cells assessed as cell growth at 3X10'-7 M after 48 hrs by sulforhodamine B assay; conditions: MCF7, 48 h, read-out: Activity
NCI-H322M = experiment: Growth inhibition of human NCI-H322M cells assessed as cell growth at 3X10'-8 M after 48 hrs by sulforhodamine B assay; conditions: read-out: Activity
KM12 = experiment: Growth inhibition of human KM12 cells assessed as cell growth at 3X10'-9 M after 48 hrs by sulforhodamine B assay; conditions: KM12, 48 h, read-out: Activity
PC-3 = experiment: Growth inhibition of human PC3 cells assessed as cell growth at 3X10'-7 M after 48 hrs by sulforhodamine B assay; conditions: PC-3, 48 h, read-out: Activity
SK-OV-3 = experiment: Growth inhibition of human SKOV3 cells assessed as cell growth at 3X10'-7 M after 48 hrs by sulforhodamine B assay; conditions: SK-OV-3, 48 h, read-out: Activity
SF-268 [9] = experiment: Growth inhibition of human SF268 cells assessed as cell growth at 3X10'-5 M after 48 hrs by sulforhodamine B assay; conditions: SF-268, 48 h, read-out: Activity
SNB-75 [10] = experiment: Growth inhibition of human SNB75 cells assessed as cell growth at 3X10'-5 M after 48 hrs by sulforhodamine B assay; conditions: SNB-75, 48 h, read-out: Activity
A549 = experiment: Growth inhibition of human A549/ATCC cells assessed as cell growth at 3X10'-9 M after 48 hrs by sulforhodamine B assay; conditions: A549, 48 h, read-out: Activity
SK-MEL-5 = experiment: Growth inhibition of human SK-MEL-5 cells assessed as cell growth at 3X10'-9 M after 48 hrs by sulforhodamine B assay; conditions: SK-MEL-5, 48 h, read-out: Activity
OVCAR-8 [11] = experiment: Growth inhibition of human OVCAR8 cells assessed as cell growth at 3X10'-9 M after 48 hrs by sulforhodamine B assay; conditions: OVCAR-8, 48 h, read-out: Activity
SF-295 = experiment: Growth inhibition of human SF295 cells assessed as cell growth at 3X10'-8 M after 48 hrs by sulforhodamine B assay; conditions: SF-295, 48 h, read-out: Activity
COLO 205 [12] = experiment: Growth inhibition of human COLO205 cells assessed as cell growth at 3X10'-6 M after 48 hrs by sulforhodamine B assay; conditions: COLO 205, 48 h, read-out: Activity
CAKI-1 [13] = experiment: Growth inhibition of human CAKI-1 cells assessed as cell growth at 3X10'-7 M after 48 hrs by sulforhodamine B assay; conditions: CAKI-1, 48 h, read-out: Activity
Malme-3M = experiment: Growth inhibition of human MALME-3M cells assessed as cell growth at 3X10'-7 M after 48 hrs by sulforhodamine B assay; conditions: read-out: Activity
LOX IMVI [14] = experiment: Growth inhibition of human LOXIMVI cells assessed as cell growth at 3X10'-6 M after 48 hrs by sulforhodamine B assay; conditions: read-out: Activity
CAKI-1 [15] = experiment: Growth inhibition of human CAKI-1 cells assessed as cell growth at 3X10'-6 M after 48 hrs by sulforhodamine B assay; conditions: CAKI-1, 48 h, read-out: Activity
SNB-75 [16] = experiment: Growth inhibition of human SNB75 cells assessed as cell growth at 3X10'-9 M after 48 hrs by sulforhodamine B assay; conditions: SNB-75, 48 h, read-out: Activity
COLO 205 [17] = experiment: Growth inhibition of human COLO205 cells assessed as cell growth at 3X10'-7 M after 48 hrs by sulforhodamine B assay; conditions: COLO 205, 48 h, read-out: Activity
[18] = Growth inhibition of human HCC2998 cells assessed as cell growth at 3X10'-7 M after 48 hrs by sulforhodamine B assay; conditions: HCC 2998, 48 h, read-out: Activity
UO-31 = experiment: Growth inhibition of human UO31 cells assessed as cell growth at 3X10'-7 M after 48 hrs by sulforhodamine B assay; conditions: UO-31, 48 h, read-out: Activity
OVCAR-8 [19] = experiment: Growth inhibition of human OVCAR8 cells assessed as cell growth at 3X10'-5 M after 48 hrs by sulforhodamine B assay; conditions: OVCAR-8, 48 h, read-out: Activity
U-251 = experiment: Growth inhibition of human U251 cells assessed as cell growth at 3X10'-5 M after 48 hrs by sulforhodamine B assay; conditions: U-251, 48 h, read-out: Activity
OVCAR-5 = experiment: Growth inhibition of human OVCAR5 cells assessed as cell growth at 3X10'-5 M after 48 hrs by sulforhodamine B assay; conditions: OVCAR-5, 48 h, read-out: Activity
TK-10 = experiment: Growth inhibition of human TK10 cells assessed as cell growth at 3X10'-5 M after 48 hrs by sulforhodamine B assay; conditions: TK-10, 48 h, read-out: Activity

Structure (SMILES)	growth at 0.003 µM (SF-268 [1]) [%]	growth at 0.03 µM (SF-539) [%]	growth at 0.003 µM (MCF7 [2]) [%]	growth at 30 µM (MDA-MB-231) [%]	growth at 0.03 µM (LOX IMVI [3]) [%]	growth at 0.03 µM (K562) [%]	growth at 0.03 µM (NCI-H460 [4]) [%]	growth at 30 µM [5] [%]	growth at 3 µM (NCI-H460 [6]) [%]	growth at 0.003 µM (BT-549) [%]	growth at 3 µM (OVCAR-3) [%]	growth at 0.03 µM (ACHN) [%]	growth at 30 µM (MCF7 [7]) [%]	growth at 0.3 µM (MCF7 [8]) [%]	growth at 0.03 µM (NCI-H322M) [%]	growth at 0.003 µM (KM12) [%]	growth at 0.3 µM (PC-3) [%]	growth at 0.3 µM (SK-OV-3) [%]	growth at 30 µM (SF-268 [9]) [%]	growth at 30 µM (SNB-75 [10]) [%]	other results
O=C(Nc1cccc(-n2cc(-c3ccncc3)c(-c3ccc(Cl)c(O)c3)n2)c1)Nc1ccc(Cl)c(C(F)(F)F)c1	101	94	93	-60	99	105	100	-8	4	102	-24	98	2	71	105	101	73	95	-20	-31	growth at 0.003 µM (A549): 98%; growth at 0.003 µM (SK-MEL-5): 99%; growth at 0.003 µM (OVCAR-8 [11]): 100%; growth at 0.03 µM (SF-295): 92%; growth at 3 µM (COLO 205 [12]): 42%; growth at 0.3 µM (CAKI-1 [13]): 87%; growth at 0.3 µM (Malme-3M): 77%; growth at 3 µM (LOX IMVI [14]): -71%; growth at 3 µM (CAKI-1 [15]): -9%; growth at 0.003 µM (SNB-75 [16]): 93%; growth at 0.3 µM (COLO 205 [17]): 101%; growth at 0.3 µM [18]: 95%; growth at 0.3 µM (UO-31): 82%; growth at 30 µM (OVCAR-8 [19]): -14%; growth at 30 µM (U-251): -80%; growth at 30 µM (OVCAR-5): -14%; growth at 30 µM (TK-10): -19%
COc1cc(-c2nn(-c3cccc(NC(=O)c4ccc(Cl)c(C(F)(F)F)c4)c3)cc2-c2ccncc2)ccc1Cl	94	102	93	3	91	100	104	5	51	96	43	100	13	89	90	98	78	103	23	-2	growth at 0.003 µM (A549): 96%; growth at 0.003 µM (SK-MEL-5): 99%; growth at 0.003 µM (OVCAR-8 [11]): 100%; growth at 0.03 µM (SF-295): 94%; growth at 3 µM (COLO 205 [12]): 74%; growth at 0.3 µM (CAKI-1 [13]): 85%; growth at 0.3 µM (Malme-3M): 88%; growth at 3 µM (LOX IMVI [14]): 39%; growth at 3 µM (CAKI-1 [15]): 44%; growth at 0.003 µM (SNB-75 [16]): 86%; growth at 0.3 µM (COLO 205 [17]): 99%; growth at 0.3 µM [18]: 101%; growth at 0.3 µM (UO-31): 47%; growth at 30 µM (OVCAR-8 [19]): 15%; growth at 30 µM (U-251): 15%; growth at 30 µM (OVCAR-5): 68%; growth at 30 µM (TK-10): 44%
